{"source": "patent US6399599B1", "about": "“Substituted 2-oxo-1,4-diazacycloalkanes” (Novartis AG, priority 1999, dated 2002)", "system": "allergic contact dermatitis (oxazolone, elicitation phase)", "assay": "Allergic contact dermatitis (ACD), oxazolone", "assay_type": "in vivo", "details": "female NMRI mice, 24 h after challenge", "excerpt": "ii) Allergic Contact Dermatitis (ACD)\nGroups of 8 female NMRI mice are sensitized on the shaved abdomen with 50 —l of oxazolone (Sigma, 2% in acetone) and challenged with 10 —l of 0.2 or 2.0% oxazolone on the inner surface of the right ear 7 days later. The low concentration of oxazolone for induction of the elicitation phase is used for testing compounds on […] whereas the high concentration is applied for […] testing. The unchallenged left ears serve as normal controls and dermatitis is evaluated from the individual differences in pinnal weight, which is taken as a measure of increase in inflammatory swelling 24 h after the challenge. Dermatitis is evaluated in test- and for comparison in control groups. The test groups are treated with the test compounds either orally (twice, 2 h and immediately before challenge), subcutaneously (immediately before challenge) or topically (30 min after challenge at the site of elicitation of the ACD); the controls are treated similarly with the vehicles alone. […] The data of the test-and the vehicle-treated control groups are statistically analysed by ANOVA followed by Dunnet T-test (normal distribution or data) or by H and U-test, respectively. […]", "data": [{"smiles": "C[C@@H]1CCN([C@H](Cc2cccc3ccccc23)C(N)=O)C(=O)[C@H](c2ccccc2)N1C(=O)Cc1ccc2ncccc2c1", "note": "[Example 3, (R)-2-[(3S,5R)-5Methyl-2-oxo-3-phenyl-4-(quinolin-6-yl-acetyl)-[1,4]diazepan-1-yl]-3-(naphthalen-1-yl)-propionamide]", "values": [{"measurement": "inhibiting effect in allergic contact dermatitis (pinnal weight)", "setting": "applied topically at a dose of 10 mM", "result": 50, "unit": "%"}, {"measurement": "inhibiting effect in allergic contact dermatitis (pinnal weight)", "setting": "p.o. at a dose of 2×3 mg/kg", "result": 40, "unit": "%"}]}]}
